# According to US8546380B2, “Aminodihydrothiazine derivatives” (Shionogi & Co., Ltd., priority 2005, dated 2013):
# Biological target: recombinant human BACE-1 protein (Homo sapiens (Human), UniProt P56817)
# Experiment: Measurement of Inhibition of β-Secretase Activity
# Type: biochemical
# Details: not given
# Procedure: Zero point five μL of the test compounds (dissolved in N,N′-dimethylsulfoxide) were incubated with 48.5 μL of the fluorescence-quenched peptide substrate solution (Biotin-XSEVNLDAEFRHDSGC-Eu:X=ε-amino-n-capronic acid, Eu=Europium cryptate) and 1 μL of recombinant human BACE-1 protein (R&D systems) for 3 h at 30° C. in the 96 well half-area plate (black color plate, Costar). The substrate peptide was synthesized by reacting with Biotin-XSEVNLDAEFRHDSGC (Peptide Institute) and Cryptate TBPCOOH mono SMP (CIS bio international). […] The enzymatic reaction was performed in sodium acetate buffer (50 mM sodium acetate (pH5.0), 0.008% Triton X-100). After the reaction, a 50 μL of 8.0 μg/mL Streptavidin-XL665 (CIS bio international) dissolved in phosphate buffer (150 mM K2HPO4—KH2PO4 (pH 7.0), 0.008% Triton X-100, 0.8 M KF) was add to each well and incubated for 1 h at 30° C.
# recombinant human BACE-1 protein, sequence (P56817 46-501): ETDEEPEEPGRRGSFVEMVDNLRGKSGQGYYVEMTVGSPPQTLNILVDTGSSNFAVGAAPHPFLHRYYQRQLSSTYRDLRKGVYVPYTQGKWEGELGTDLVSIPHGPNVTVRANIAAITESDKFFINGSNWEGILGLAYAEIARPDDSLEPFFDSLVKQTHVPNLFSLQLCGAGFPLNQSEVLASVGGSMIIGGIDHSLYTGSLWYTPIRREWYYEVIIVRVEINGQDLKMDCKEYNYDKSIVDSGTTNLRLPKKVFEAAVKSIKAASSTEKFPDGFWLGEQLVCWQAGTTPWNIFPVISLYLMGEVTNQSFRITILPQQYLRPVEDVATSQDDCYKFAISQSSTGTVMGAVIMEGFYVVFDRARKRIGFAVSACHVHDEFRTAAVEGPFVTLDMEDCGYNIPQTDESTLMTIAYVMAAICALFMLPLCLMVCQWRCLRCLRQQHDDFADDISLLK
row,SMILES,IC50
1,CC1(c2cccc(NC(=O)c3nc4ccccc4s3)c2)CCSC(N)=N1 (stereo not drawn) [Compound 1108],< 100 µM

# Same assay, conditions: fluorescence-quenched peptide substrate 18 nM, BACE-1 7.4 nM, 3 h at 30° C., pH5.0; read-out: IC50 value
row,SMILES,IC50
1,COc1ccc(NC(=O)COc2cccc(C3(C)CCSC(N)=N3)c2)cc1 (stereo not drawn) [Compound 67],< 100 µM
2,CC1(c2cccc(NC(=O)c3ccc(Br)cc3)c2)CCSC(N)=N1 (stereo not drawn) [Compound 959],< 100 µM
3,CC1(c2cccc(NC(=O)c3cc4ccccc4o3)c2)CCSC(N)=N1 (stereo not drawn) [Compound 303],< 100 µM
4,Cc1ccc2[nH]c(C(=O)Nc3cccc(C4(C)CCSC(N)=N4)c3)cc2c1 (stereo not drawn) [Compound 629],< 100 µM
5,CCN(C(=O)c1ccc(Cl)cn1)c1cccc(C2(C)CCSC(N)=N2)c1 (stereo not drawn) [Compound 941],< 100 µM
6,CC1(c2cccc(C(=O)Nc3nncs3)c2)CCSC(N)=N1 (stereo not drawn) [Compound 671],< 100 µM
7,Cn1c(C(=O)Nc2ccc(F)c(C3(C)CCSC(N)=N3)c2)cc2ccccc21 (stereo not drawn) [Compound 586],< 100 µM
8,CC1(c2cccc(NC(=O)c3ccc4nonc4c3)c2)CCSC(N)=N1 (stereo not drawn) [Compound 652],< 100 µM
9,CC1(c2cccc(NC(=O)c3cccc(Cl)c3F)c2)CCSC(N)=N1 (stereo not drawn) [Compound 932],< 100 µM
10,CSc1ncccc1C(=O)Nc1cccc(C2(C)CCSC(N)=N2)c1 (stereo not drawn) [Compound 847],< 100 µM
11,COc1ccc(CC(=O)NCc2cccc(C3(C)CCSC(N)=N3)c2)cc1 (stereo not drawn) [Compound 910],< 100 µM
12,CC1(c2cccc(OCC(=O)Nc3ccc4ccccc4n3)c2)CCSC(N)=N1 (stereo not drawn) [Compound 390],< 100 µM
13,CC1(c2cccc(OCC(=O)Nc3cccc(Cl)c3)c2)CCSC(N)=N1 (stereo not drawn) [Compound 1145],< 100 µM
14,CC1(c2cc(NC(=O)c3cocn3)ccc2F)CCSC(N)=N1 (stereo not drawn) [Compound 97],< 100 µM
15,CC1(c2cc(NC(=O)c3ccc(Cl)cn3)cc(S(C)(=O)=O)c2)CCSC(N)=N1 (stereo not drawn) [Compound 1034],< 100 µM
16,CC1(c2cccc(OCC(=O)Nc3ccc4c(c3)OCCO4)c2)CCSC(N)=N1 (stereo not drawn) [Compound 509],< 100 µM
17,CC1(c2cccc(NC(=O)c3ccc(-c4ccccn4)s3)c2)CCSC(N)=N1 (stereo not drawn) [Compound 1096],< 100 µM
18,COc1ccc(C(=O)Nc2cccc(C3(C)CCSC(N)=N3)c2)cc1[N+](=O)[O-] (stereo not drawn) [Compound 154],< 100 µM
19,CCOC(=O)C#Cc1cccc(C2(C)CCSC(N)=N2)c1 (stereo not drawn) [Compound 933],< 100 µM
20,Cc1ccc(NC(=O)COc2cccc(C3(C)CCSC(N)=N3)c2)cc1 (stereo not drawn) [Compound 746],< 100 µM
21,CC1(c2cccc(NC(=O)c3cc([N+](=O)[O-])ccn3)c2)CCSC(N)=N1 (stereo not drawn) [Compound 770],< 100 µM
22,CC1(c2cc(NC(=O)c3cc4cc(OC(F)(F)F)ccc4[nH]3)ccc2F)CCSC(N)=N1 (stereo not drawn) [Compound 939],< 100 µM
23,CC1(c2cccc(NC(=O)Nc3ccc(Br)cc3)c2)CCSC(N)=N1 (stereo not drawn) [Compound 887],< 100 µM
24,CC1(c2cccc(NC(=O)c3ccc(-c4ccccc4)cc3)c2)CCSC(N)=N1 (stereo not drawn) [Compound 761],< 100 µM
25,CC1(c2cccc(NC(=O)c3ccc(C#N)cc3F)c2)CCSC(N)=N1 (stereo not drawn) [Compound 517],< 100 µM
26,CC1(c2cccc(NC(=O)c3cnc(N=[N+]=N)cn3)c2)CCSC(N)=N1 (stereo not drawn) [Compound 1266],< 100 µM

row,SMILES,IC50
1,Cc1cc(C(=O)Nc2cc(C3(C)CCSC(N)=N3)ccc2F)c(C)o1 (stereo not drawn) [Compound 607],< 100 µM
2,CC1(c2cccc(NCC3CCCCC3)c2)CCSC(N)=N1 (stereo not drawn) [Compound 120],< 100 µM
3,CC1(c2cccc(NC(=O)c3ccc(NC(=O)c4ccccn4)cn3)c2)CCSC(N)=N1 (stereo not drawn) [Compound 319],< 100 µM
4,COCC(=O)Nc1cccc(C2(C)CCSC(N)=N2)c1 (stereo not drawn) [Compound 988],< 100 µM
5,CC1(c2cccc(C(=O)Nc3ccc(Cl)cn3)c2)CCSC(N)=N1 (stereo not drawn) [Compound 542],< 100 µM
6,CC1(c2cccc(NC(=O)c3ccc(Cl)nc3Cl)c2)CCSC(N)=N1 (stereo not drawn) [Compound 865],< 100 µM
7,CC1(c2cccc(NC(=O)c3ccc4ncsc4c3)c2)CCSC(N)=N1 (stereo not drawn) [Compound 228],< 100 µM
8,C[C@@H](NC(=O)c1cc(NC(=O)c2ccc(Cl)cn2)cc(C2(C)CCSC(N)=N2)c1)c1ccccc1 (stereo partly drawn) [Compound 1099],< 100 µM
9,CC1(c2cc(NC(=O)c3cc4ccccc4[nH]3)ccc2F)CCSC(N)=N1 (stereo not drawn) [Compound 344],< 100 µM
10,CC1(c2cccc(NC(=O)CCNC(=O)c3ccc(F)cn3)c2)CCSC(N)=N1 (stereo not drawn) [Compound 816],< 100 µM
11,CC1(c2cc(NC(=O)c3ccco3)cc(-c3ccc(Cl)cc3)c2)CCSC(N)=N1 (stereo not drawn) [Compound 725],< 100 µM
12,CC1(c2cccc(NC(=O)c3ccc(Cl)cc3Cl)c2)CCSC(N)=N1 (stereo not drawn) [Compound 182],< 100 µM
13,CC1(c2cc(NC(=O)c3ncc(Cl)cc3N)ccc2F)CCSC(N)=N1 (stereo not drawn) [Compound 820],< 100 µM
14,CC1(c2cccc(NC(=S)Nc3ccc(Br)cc3)c2)CCSC(N)=N1 (stereo not drawn) [Compound 43],< 100 µM
15,Cc1cccc(C(=O)Nc2cccc(C3(C)CCSC(N)=N3)c2)n1 (stereo not drawn) [Compound 348],< 100 µM
16,CC1(c2cccc(NC(=O)c3ccc(C#N)nc3)c2)CCSC(N)=N1 (stereo not drawn) [Compound 819],< 100 µM
17,CC1(c2cccc(NC(=O)c3ccc(NCc4ccccc4)cn3)c2)CCSC(N)=N1 (stereo not drawn) [Compound 608],< 100 µM
18,CC1(c2cccc(NC(=O)c3ccc(I)cc3)c2)CCSC(N)=N1 (stereo not drawn) [Compound 201],< 100 µM
19,Cc1ccc(C(=O)Nc2cccc(C3(C)CCSC(N)=N3)c2)nn1 (stereo not drawn) [Compound 618],< 100 µM
20,CC1(c2cccc(NC(=O)c3ccc(CO)cn3)c2)CCSC(N)=N1 (stereo not drawn) [Compound 80],< 100 µM
21,CC1(c2cccc(C(=O)Nc3nc4ccc(O)cc4s3)c2)CCSC(N)=N1 (stereo not drawn) [Compound 1089],< 100 µM
22,CC1(c2cccc(NCc3ccc4ccccc4c3)c2)CCSC(N)=N1 (stereo not drawn) [Compound 443],< 100 µM
23,CC1(c2cc(NC(=S)c3ccc(Br)cc3)cc(S(C)(=O)=O)c2)CCSC(N)=N1 (stereo not drawn) [Compound 71],< 100 µM
24,CC1(c2cccc(NC(=O)Cc3cc(Cl)ccn3)c2)CCSC(N)=N1 (stereo not drawn) [Compound 113],< 100 µM
25,CC1(c2cccc(NC(=O)c3cnc(NCCO)cn3)c2)CCSC(N)=N1 (stereo not drawn) [Compound 1263],< 100 µM
26,CCCCCOc1ccc(NC(=O)COc2cccc(C3(C)CCSC(N)=N3)c2)cc1 (stereo not drawn) [Compound 211],< 100 µM

# Same assay, conditions: recombinant human BACE-1 protein, 3 h at 30° C., pH5.0; read-out: IC50 value
row,SMILES,IC50
1,CC1(c2cccc(NCc3ccc(Cl)cc3)c2)CCSC(N)=N1 (stereo not drawn) [Compound 753],5.6 µM
2,CC1(c2cc(Br)cc(NC(=O)c3cccs3)c2)CCSC(N)=N1 (stereo not drawn) [Compound 490],5.1 µM
3,CC1(c2ccc(F)c(NC(=O)c3ccc4ccccc4n3)c2)CCSC(N)=N1 (stereo not drawn) [Compound 799],6.7 µM
4,Cc1ccc(NC(=O)COc2cccc(C3(C)CCSC(N)=N3)c2)cc1F (stereo not drawn) [Compound 1000],8 µM
5,CC1(c2cc(NC(=O)c3ccco3)cc(C(F)(F)F)c2)CCSC(N)=N1 (stereo not drawn) [Compound 163],2.28 µM
6,CC1(c2cccc(NC(=O)c3nc4ccccc4s3)c2)CCSC(N)=N1 (stereo not drawn) [Compound 912],0.175 µM
7,CC1(c2cccc(C=Cc3ccc(Cl)cn3)c2)CCSC(N)=N1 (stereo not drawn) [Compound 616],5.9 µM
8,Cc1ccc(NC(=O)COc2cccc(C3(C)CCSC(N)=N3)c2)cc1O (stereo not drawn) [Compound 639],7.9 µM
9,CC1(c2cccc(OCC(=O)Nc3ccc(Cl)cc3)c2)CCSC(N)=N1 (stereo not drawn) [Compound 246],2.9 µM
10,CC1(c2cccc(OCC(=O)Nc3cccc(O)c3)c2)CCSC(N)=N1 (stereo not drawn) [Compound 269],7 µM
